For 13 compounds, inhibition and IC50 results are on record in patent US7196110B2, “N-substituted tricyclic 3-aminopyrazoles as inhibitors for the treatment of cell proliferative disorders” (Janssen Phamaceutica N.V., priority 2002, dated 2007).

The assay concerns the target T1, PDGF-receptor beta enzyme comprising the tyrosine kinase domain (Homo sapiens, UniProt P09619).
T1 construct: from amino acid 545 to 1106 of GenBank Access NO: AAA36427
Nature of the assay: Inhibition of PDGF-receptor kinase activity (cell-free, PLC1 peptide, 33P Flashplate). In kind it is biochemical. Conditions: PDGF-R kinase activity; for inhibition at 10 µM: compound at 10 uM, read-out: Percent Inhibition @ 10 uM; for IC50: read-out: IC50. A digest of the protocol:
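Recombinant kinase domain (aa 545–1106) phosphorylated a biotinylated PLC1 peptide with 5 μM ATP plus 33P-γ-ATP, in Tris pH 8, MgCl2, Na3VO4 and 1 mM DTT, for 60 min at 30 °C. Retained 33P was counted after washing. IC50 is the concentration halving activity versus no-inhibitor reactions.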

T1 sequence (P09619 545-1106): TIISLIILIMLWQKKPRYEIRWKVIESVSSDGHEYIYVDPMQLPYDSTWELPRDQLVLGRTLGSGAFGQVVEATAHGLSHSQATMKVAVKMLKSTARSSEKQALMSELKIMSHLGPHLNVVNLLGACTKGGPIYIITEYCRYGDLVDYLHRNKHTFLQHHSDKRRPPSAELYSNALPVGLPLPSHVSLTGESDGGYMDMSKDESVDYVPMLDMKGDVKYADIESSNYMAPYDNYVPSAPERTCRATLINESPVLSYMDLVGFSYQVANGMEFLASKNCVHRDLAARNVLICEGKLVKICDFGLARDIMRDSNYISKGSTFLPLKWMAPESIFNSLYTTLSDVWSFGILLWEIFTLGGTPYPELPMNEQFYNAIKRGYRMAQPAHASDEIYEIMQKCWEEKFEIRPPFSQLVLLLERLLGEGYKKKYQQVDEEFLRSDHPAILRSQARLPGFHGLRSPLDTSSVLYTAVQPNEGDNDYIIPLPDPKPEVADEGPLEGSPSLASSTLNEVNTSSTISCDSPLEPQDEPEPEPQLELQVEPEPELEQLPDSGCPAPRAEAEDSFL

As to `COCn1nc(Nc2cccc(F)c2)c2c1-c1cc(OC)c(OC)cc1C2` [Compound 472, (6,7-Dimethoxy-1-methoxymethyl-1,4-dihydro-indeno[1,2-c]pyrazol-3-yl)-(3-fluoro-phenyl)-amine], the inhibition at 10 µM was 35%.
For `COCC(=O)OCC(=O)n1nc(Nc2cccc(F)c2)c2c1-c1cc(OC)c(OC)cc1C2` [Compound 473, Methoxy-acetic acid 2-[3-(3-fluoro-phenylamino)-6,7-dimethoxy-4H-indeno[1,2-c]pyrazol-1-yl]-2-oxo-ethyl ester], the inhibition at 10 µM was 98.5% and the concentration for half-maximal inhibition (IC50) worked out at 8.96 nM.
Taken in the same sequence, the figures for `COc1cc2c(cc1OC)-c1c(c(Nc3cccc(F)c3)nn1C(=O)COC(=O)C(C)C)C2` [Compound 474, Isobutyric acid 2-[3-(3-fluoro-phenylamino)-6,7-dimethoxy-4H-indeno[1,2-c]pyrazol-1-yl]-2-oxo-ethyl ester] were 91.5% and 63.4 nM.
Taken in the same sequence, the figures for `COCn1nc2c(c1Nc1cccc(F)c1)Cc1cc(OC)c(OC)cc1-2` [Compound 475, (6,7-Dimethoxy-2-methoxymethyl-2,4-dihydro-indeno[1,2-c]pyrazol-3-yl)-(3-fluoro-phenyl)-amine] were 65.5% and 5030 nM.
In the same order, the values of `COc1cc2c(cc1OC)-c1n[nH]c(Nc3c(F)cccc3F)c1C2` [Compound 476, (2,6-Difluoro-phenyl)-(6,7-dimethoxy-2,4-dihydro-indeno[1,2-c]pyrazol-3-yl)-amine] are 88.5% and 250 nM.
Turning to `COc1cc2c(cc1OC)-c1n[nH]c(Nc3c(F)cc(F)cc3F)c1C2` [Compound 477, (6,7-Dimethoxy-2,4-dihydro-indeno[1,2-c]pyrazol-3-yl)-(2,4,6-trifluoro-phenyl)-amine], the inhibition at 10 µM came out at 95% and the IC50 came to 229 nM.
In the same order, the values of `Brc1cccc(Nc2[nH]nc3c2Cc2c(OCCN4CCCC4)cccc2-3)c1` [Compound 478, (3-Bromo-phenyl)-[5-(2-pyrrolidin-1-yl-ethoxy)-2,4-dihydro-indeno[1,2-c]pyrazol-3-yl]-amine] are 93.5% and 162 nM.
In the same order, the values of `OCC(O)COc1cccc2c1Cc1c-2n[nH]c1NCc1c(Cl)cccc1Cl` (stereo not drawn) [Compound 479, 3-[3-(2,6-Dichloro-benzylamino)-2,4-dihydro-indeno[1,2-c]pyrazol-5-yloxy]-propane-1,2-diol] are 94.5% and 624 nM.
For `COc1cc2c(cc1OC)-c1c(c(Nc3cccc(F)c3)nn1C(=O)c1c(F)cccc1F)C2` [Compound 480, (2,6-Difluoro-phenyl)-[3-(3-fluoro-Phenylamino)-6,7-dimethoxy-4H-indeno[1,2-c]pyrazol-1-yl]-methanone], the inhibition at 10 µM is 8%.
With `COc1cc2c(cc1OC)-c1c(c(Nc3cccc(F)c3)nn1C(=O)c1ccccc1F)C2` [Compound 481, (2-Fluoro-phenyl)-[3-(3-fluoro-phenylamino)-6,7-dimethoxy-4H-indeno[1,2-c]pyrazol-1-yl]-methanone], the inhibition at 10 µM turned out to be 59% and the half-inhibitory concentration (IC50) is 3760 nM.
Consider `COc1cc2c(cc1OC)-c1c(c(Nc3cccc(F)c3)nn1CC(C)=O)C2` [Compound 484, 1-[3-(3-Fluoro-phenylamino)-6,7-dimethoxy-4H-indeno[1,2-c]pyrazol-1-yl]-propan-2-one], for which the inhibition at 10 µM turned out to be 87% and the half-maximal inhibitory concentration (IC50) came to 218 nM.
Take `COc1cc2c(cc1OC)C(C)(C)c1c-2n[nH]c1Nc1cccc(Br)c1` [Compound 485, (3-Bromo-phenyl)-(6,7-dimethoxy-4,4-dimethyl-2,4-dihydro-indeno[1,2-c]pyrazol-3-yl)-amine]: the inhibition at 10 µM was determined as 32% and the concentration for half-maximal inhibition (IC50) was determined as 59000 nM.
Taken in the same sequence, the figures for `COc1cc2c(cc1OC)C(C)(C)c1c-2n[nH]c1Nc1cccc(Cl)c1` [Compound 486, (3-Chloro-phenyl)-(6,7-dimethoxy-4,4-dimethyl-2,4-dihydro-indeno[1,2-c]pyrazol-3-yl)-amine] were 34.5% and 15800 nM.

A word on the inhibition: it is the drop in the measured response relative to a control, in per cent. As a reminder, the IC50 is the point on the concentration scale where inhibition reaches its midpoint.
